Measured values taken from patent US12421253B2 (Mirati Therapeutics, Inc., priority 2020, dated 2025).
pIC50: −log10 of the molar value.

Tests used:
[1] = target: KRas^G13D (Homo sapiens, UniProt P01116, G13D); assay: biochemical
[2] = target: KRas^Q61H (Homo sapiens, UniProt P01116, Q61H); assay: biochemical
[3] = target: T1, KRas^WT (Homo sapiens, UniProt P01116); assay: KRas binding assay (TR-FRET displacement of Cy5 labelled tracer)
T1 construct: […]; biotin (biotinylated); purchased Accelegan Inc

[4] = target: T2, KRas^G12R (Homo sapiens, UniProt P01116, G12R); assay: as above
T2 construct: […]; biotin (biotinylated); purchased Accelegan Inc

[5] = target: T3, KRas^G12D (Homo sapiens, UniProt P01116, G12D); assay: as above
T3 construct: […]; biotin (biotinylated); purchased Accelegan Inc

[6] = target: T4, KRas^G12A (Homo sapiens, UniProt P01116, G12A); assay: as above
T4 construct: […]; biotin (biotinylated); purchased Accelegan Inc

[7] = target: T5, KRas^G12S (Homo sapiens, UniProt P01116, G12S); assay: as above
T5 construct: […]; biotin (biotinylated); purchased Accelegan Inc

[8] = target: T6, KRas^G12V (Homo sapiens, UniProt P01116, G12V); assay: as above
T6 construct: […]; biotin (biotinylated); purchased Accelegan Inc

[9] = target: KRas^G12C (Homo sapiens, UniProt P01116, G12C); assay: biochemical
KRas^G12C, sequence (P01116 1-169 isoform P01116-2 G12C): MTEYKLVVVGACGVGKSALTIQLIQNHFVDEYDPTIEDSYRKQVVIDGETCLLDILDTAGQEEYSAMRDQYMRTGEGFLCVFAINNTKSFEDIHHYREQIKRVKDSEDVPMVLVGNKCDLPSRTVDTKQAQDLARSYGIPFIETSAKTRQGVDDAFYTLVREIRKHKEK

KRas^G13D, sequence (P01116 1-169 isoform P01116-2 G13D): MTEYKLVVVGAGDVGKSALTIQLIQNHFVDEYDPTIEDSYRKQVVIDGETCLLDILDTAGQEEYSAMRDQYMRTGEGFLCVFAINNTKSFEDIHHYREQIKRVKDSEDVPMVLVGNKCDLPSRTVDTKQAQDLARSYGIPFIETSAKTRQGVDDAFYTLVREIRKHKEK
T3 sequence (P01116 1-169 isoform P01116-2 G12D): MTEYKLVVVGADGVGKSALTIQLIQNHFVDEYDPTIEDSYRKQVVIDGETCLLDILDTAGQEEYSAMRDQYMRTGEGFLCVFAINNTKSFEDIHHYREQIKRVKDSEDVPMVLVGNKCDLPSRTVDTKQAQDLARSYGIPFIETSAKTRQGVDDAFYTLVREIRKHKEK
T6 sequence (P01116 1-169 isoform P01116-2 G12V): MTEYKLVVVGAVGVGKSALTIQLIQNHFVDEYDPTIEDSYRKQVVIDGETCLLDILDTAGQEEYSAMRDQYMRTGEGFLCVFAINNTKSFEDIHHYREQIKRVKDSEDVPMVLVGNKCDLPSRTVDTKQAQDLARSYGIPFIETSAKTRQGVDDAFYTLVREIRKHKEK
T2 sequence (P01116 1-169 isoform P01116-2 G12R): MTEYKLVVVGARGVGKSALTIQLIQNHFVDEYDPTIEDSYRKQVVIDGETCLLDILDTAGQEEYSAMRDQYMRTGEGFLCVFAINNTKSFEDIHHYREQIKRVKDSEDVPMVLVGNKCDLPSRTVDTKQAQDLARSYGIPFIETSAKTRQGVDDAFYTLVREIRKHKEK
T1 sequence (P01116 1-169 isoform P01116-2): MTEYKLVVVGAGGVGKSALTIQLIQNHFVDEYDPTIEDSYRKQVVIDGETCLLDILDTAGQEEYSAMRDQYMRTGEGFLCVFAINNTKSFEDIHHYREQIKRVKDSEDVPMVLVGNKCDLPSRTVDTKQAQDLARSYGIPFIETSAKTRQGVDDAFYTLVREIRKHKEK
T5 sequence (P01116 1-169 isoform P01116-2 G12S): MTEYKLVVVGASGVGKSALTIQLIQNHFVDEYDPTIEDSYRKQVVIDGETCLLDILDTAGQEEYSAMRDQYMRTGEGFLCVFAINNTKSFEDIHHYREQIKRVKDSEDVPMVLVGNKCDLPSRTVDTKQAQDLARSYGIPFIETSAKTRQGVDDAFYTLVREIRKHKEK
KRas^Q61H, sequence (P01116 1-169 isoform P01116-2 Q61H): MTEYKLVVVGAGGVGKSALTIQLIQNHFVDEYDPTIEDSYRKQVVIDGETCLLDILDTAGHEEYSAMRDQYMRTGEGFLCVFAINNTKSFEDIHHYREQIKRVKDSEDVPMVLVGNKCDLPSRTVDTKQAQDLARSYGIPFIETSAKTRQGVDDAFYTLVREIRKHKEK
T4 sequence (P01116 1-169 isoform P01116-2 G12A): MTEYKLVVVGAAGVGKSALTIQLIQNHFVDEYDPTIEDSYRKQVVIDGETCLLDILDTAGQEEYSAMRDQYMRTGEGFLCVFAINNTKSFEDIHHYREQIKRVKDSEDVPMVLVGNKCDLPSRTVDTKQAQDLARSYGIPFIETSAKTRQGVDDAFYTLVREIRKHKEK

pIC50 [1] | pIC50 [2] | pIC50 [3] | pIC50 [4] | pIC50 [5] | pIC50 [6] | pIC50 [7] | pIC50 [8] | pIC50 [9] | Compound
6.17 | 6.13 | 6.29 | 6.40 | 5.92 | 6.31 | 6.42 | 6.26 | 6.45 | CCc1cccc2cccc(N3CCc4c(nc(OCC56CCCN5CCC6)nc4N4CC(O)C(O)C(O)C4)C3)c12 (stereo not drawn) [Example 101, 1-(7-(8-ethylnaphthalen-1-yl)-2-((tetrahydro-1H-pyrrolizin-7a(5H)-yl)methoxy)-5,6,7,8-tetrahydropyrido[3,4-d]pyrimidin-4-yl)piperidine-3,4,5-triol]
5.49 | 5.61 | 5.66 | 6.12 | 4.80 | 5.53 | 5.67 | 5.62 | 5.89 | CCc1cccc2cccc(N3CCc4c(nc(OCC56CCCN5CCC6)nc4N4CC(CO)OC5(CCC5)C4)C3)c12 (stereo not drawn) [Example 129, (8-(7-(8-ethylnaphthalen-1-yl)-2-((tetrahydro-1H-pyrrolizin-7a(5H)-yl)methoxy)-5,6,7,8-tetrahydropyrido[3,4-d]pyrimidin-4-yl)-5-oxa-8-azaspiro[3.5]nonan-6-yl)methanol]
6.24 | 7.19 | 6.39 | 5.68 | 5.14 | 5.87 | 5.88 | 5.80 | 5.81 | CCc1cccc2cccc(N3CCc4c(nc(OCC56CCCN5CCC6)nc4N4CCCC(P(C)(C)=O)C4)C3)c12 (stereo not drawn) [Example 112, (1-(7-(8-ethylnaphthalen-1-yl)-2-((tetrahydro-1H-pyrrolizin-7a(5H)-yl)methoxy)-5,6,7,8-tetrahydropyrido[3,4-d]pyrimidin-4-yl)piperidin-3-yl)dimethylphosphine oxide]
6.16 | 6.16 | 6.14 | 6.44 | 5.59 | 6.11 | 6.10 | 5.86 | 6.37 | CCc1cccc2cccc(N3CCc4c(nc(OCC56CCCN5CCC6)nc4N4CCOC(CC(N)=O)C4)C3)c12 (stereo not drawn) [Example 103, 2-(4-(7-(8-ethylnaphthalen-1-yl)-2-((tetrahydro-1H-pyrrolizin-7a(5H)-yl)methoxy)-5,6,7,8-tetrahydropyrido[3,4-d]pyrimidin-4-yl)morpholin-2-yl)acetamide]
5.74 | 5.76 | 5.81 | 5.87 | 5.69 | 5.68 | 5.85 | 6.13 | 5.94 | CCc1cccc2cccc(N3CCc4c(nc(OCC56CCCN5CCC6)nc4N(C)Cc4c[nH]nn4)C3)c12 [Example 127, N-((1H-1,2,3-triazol-4-yl)methyl)-7-(8-ethylnaphthalen-1-yl)-N-methyl-2-((tetrahydro-1H-pyrrolizin-7a(5H)-yl)methoxy)-5,6,7,8-tetrahydropyrido[3,4-d]pyrimidin-4-amine]
4.79 | 4.77 | 4.77 | 4.93 | 4.60 | 4.56 | 4.78 | 5.23 | 4.82 | CCc1cccc2cccc(N3CCc4c(nc(OCC56CCCN5CCC6)nc4NC4CC5CC5C4)C3)c12 (stereo not drawn) [Example 170, N-(bicyclo[3.1.0]hexan-3-yl)-7-(8-ethylnaphthalen-1-yl)-2-((tetrahydro-1H-pyrrolizin-7a(5H)-yl)methoxy)-5,6,7,8-tetrahydropyrido[3,4-d]pyrimidin-4-amine]
5.31 | 5.33 | 5.50 | 5.31 | 4.65 | 5.73 | 5.47 | 5.14 | 5.35 | CCc1cccc2cccc(N3CCc4c(nc(OCC56CCCN5CCC6)nc4NCc4c5c(n[nH]c4=O)CCCC5)C3)c12 [Example 155, 4-(((7-(8-ethylnaphthalen-1-yl)-2-((tetrahydro-1H-pyrrolizin-7a(5H)-yl)methoxy)-5,6,7,8-tetrahydropyrido[3,4-d]pyrimidin-4-yl)amino)methyl)-5,6,7,8-tetrahydrocinnolin-3(2H)-one]
5.47 | 5.40 | 5.39 | 5.55 | 5.12 | 5.28 | 5.46 | 5.08 | 5.42 | CCc1cccc2cccc(N3CCc4c(nc(OCC56CCCN5CCC6)nc4N4CCCC(c5nc(C)no5)C4)C3)c12 (stereo not drawn) [Example 162, 5-(1-(7-(8-ethylnaphthalen-1-yl)-2-((tetrahydro-1H-pyrrolizin-7a(5H)-yl)methoxy)-5,6,7,8-tetrahydropyrido[3,4-d]pyrimidin-4-yl)piperidin-3-yl)-3-methyl-1,2,4-oxadiazole]
≥ 8.70 | ≥ 8.70 | ≥ 8.70 | ≥ 8.70 | 8.52 | ≥ 8.70 | ≥ 8.70 | ≥ 8.70 | ≥ 8.70 | CCc1cccc2cccc(N3CCc4c(nc(OCC56CCCN5CCC6)nc4N4CCCC5(C4)NC(=O)NC5=O)C3)c12 (stereo not drawn) [Example 12, 7-(7-(8-ethylnaphthalen-1-yl)-2-((tetrahydro-1H-pyrrolizin-7a(5H)-yl)methoxy)-5,6,7,8-tetrahydropyrido[3,4-d]pyrimidin-4-yl)-1,3,7-triazaspiro[4.5]decane-2,4-dione]
6.04 | 6.02 | 6.12 | 6.64 | 5.98 | 6.53 | 6.34 | 6.36 | 6.42 | CCc1cccc2cccc(N3CCc4c(nc(OCC56CCCN5CCC6)nc4N4CCCC(NC(=O)N(C)C)C4)C3)c12 (stereo not drawn) [Example 91, 3-(1-(7-(8-ethylnaphthalen-1-yl)-2-((tetrahydro-1H-pyrrolizin-7a(5H)-yl)methoxy)-5,6,7,8-tetrahydropyrido[3,4-d]pyrimidin-4-yl)piperidin-3-yl)-1,1-dimethylurea]
6.33 | 6.28 | 6.43 | 6.20 | 5.84 | 6.37 | 6.27 | 6.39 | 6.31 | CCc1cccc2cccc(N3CCc4c(nc(OCC56CCCN5CCC6)nc4N4CCCC(CO)CC4)C3)c12 (stereo not drawn) [Example 107, (1-(7-(8-ethylnaphthalen-1-yl)-2-((tetrahydro-1H-pyrrolizin-7a(5H)-yl)methoxy)-5,6,7,8-tetrahydropyrido[3,4-d]pyrimidin-4-yl)azepan-4-yl)methanol]
4.88 | 5.14 | 5.12 | 5.76 | 4.98 | 5.63 | 5.73 | 5.86 | 5.90 | CCc1cccc2cccc(N3CCc4c(nc(OCC56CCCN5CCC6)nc4NCc4cccnc4-n4cncn4)C3)c12 [Example 142, N-((2-(1H-1,2,4-triazol-1-yl)pyridin-3-yl)methyl)-7-(8-ethylnaphthalen-1-yl)-2-((tetrahydro-1H-pyrrolizin-7a(5H)-yl)methoxy)-5,6,7,8-tetrahydropyrido[3,4-d]pyrimidin-4-amine]
5.57 | 5.34 | 5.44 | 5.79 | 4.51 | 5.57 | 5.33 | 5.27 | 5.46 | CCc1cccc2cccc(N3CCc4c(nc(OCC56CCCN5CCC6)nc4N4CCC(n5ccnn5)CC4)C3)c12 [Example 151, 4-(4-(1H-1,2,3-triazol-1-yl)piperidin-1-yl)-7-(8-ethylnaphthalen-1-yl)-2-((tetrahydro-1H-pyrrolizin-7a(5H)-yl)methoxy)-5,6,7,8-tetrahydropyrido[3,4-d]pyrimidine]
5.16 | 5.20 | 5.32 | 5.74 | 4.37 | 5.60 | 5.48 | 5.85 | 5.73 | CCc1cccc2cccc(N3CCc4c(nc(OCC56CCCN5CCC6)nc4N4CC5(CNC(=O)N5)C4)C3)c12 [Example 149, 2-(7-(8-ethylnaphthalen-1-yl)-2-((tetrahydro-1H-pyrrolizin-7a(5H)-yl)methoxy)-5,6,7,8-tetrahydropyrido[3,4-d]pyrimidin-4-yl)-2,5,7-triazaspiro[3.4]octan-6-one]
5.26 | 5.34 | 5.46 | 5.85 | 4.91 | 5.60 | 5.55 | 5.93 | 5.83 | CCc1cccc2cccc(N3CCc4c(nc(OCC56CCCN5CCC6)nc4Nc4cnn(CC(N)=O)c4)C3)c12 [Example 139, 2-(4-((7-(8-ethylnaphthalen-1-yl)-2-((tetrahydro-1H-pyrrolizin-7a(5H)-yl)methoxy)-5,6,7,8-tetrahydropyrido[3,4-d]pyrimidin-4-yl)amino)-1H-pyrazol-1-yl)acetamide]
